In assay [1] the test system is Truncated N-terminal huntington 150 Q-EGFP-Neuron 2a cells. Kind of assay: Measurement of x-Fold (polyglutamine aggregation inhibitory activity). Format: cell-based. Here is the method:
In the present invention, the polyglutamine aggregation inhibitory activity (x-Fold) can be measured, for example, by the method described in the Example.
The number of the aggregated cells, and the total number of cells were counted by Array Scan V T1 (manufactured by Cellomics, Pittuburg, USA), and the ratio of the aggregated cells to the total number of cells was determined (x-Fold). […]

In another assay the test system is transglutaminase (TGase). Put plainly: Measurement of TG (TGase inhibitory activity, monodansyl cadaverine / N,N-dimethylcasein fluorescence, FDSS 3000). The assay is classed as biochemical. In short, it runs like this:
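Compound (1 μL of 10 mM stock) added to 0.1 mL reaction: 100 mM HEPES-NaOH pH 7.5, 1 mM CaCl2, 20 μM monodansyl cadaverine, 0.05 mg/mL N,N-dimethylcasein, 5 μg/mL TGase. Rate of fluorescence change at 340 nm measured; DMSO control set to 100; TG50 is the concentration halving activity.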

Assay [2] has as its system SOC (store operated calcium channel). Put plainly: Measurement of SOC IC50 (thapsigargin store depletion, calcium re-addition, CHO cells). The assay is classed as cell-based. As to conditions: Cricetulus griseus, CHO, Table 1; read-out: SOC IC50. Here is the method:
The SOC (store operated calcium channel)-suppressive action can be measured by the method described in the Example and using, for example, FDSS 3000.
CHO cell culture medium was replaced with a BSS solution which is an extracellular fluidfree of calcium, the compound of the present invention was added 1 min later, and 1 μM thapsigargin was allowed to act thereon 2 min later to deplete intracellular calcium store. […]

Setting [3] is: polyglutamine aggregation, Truncated N-terminal huntington 150 Q-EGFP-Neuron 2a cells.
Where [4] appears, read: ratio of aggregated cells to total number of cells, compound 20 μM, 20 hr, almost 1 without compound, smaller = stronger inhibition.
[5] abbreviates: TGase activity with compound (10 mM, 1 μL in 0.1 ml enzyme reaction solution), DMSO control taken as 100.
Where [6] appears, read: TGase inhibitory activity measurement, unit not given.
Where [7] appears, read: polyglutamine aggregation inhibitory activity, Table 1.
Setting [8] is: TGase inhibitory activity value, Table 1.

`Cc1ccc(B(OCCN(C)C)c2ccc(Oc3ccc(B(OCCN(C)C)c4ccc(C)cc4)cc3)cc2)cc1` [Example 446, bis(4,4′-(tolyldimethylaminoethoxyboryl)phenyl)ether]: the x-Fold in assay [1] (setting [3]) and in assay [1] (setting [4]) was 0.85 in each case. The “TGase activity remaining (% of DMSO control = 100)” value in the assay on transglutaminase (TGase) (setting [5]) and with transglutaminase (TGase) (setting [6]) was 73 in each case.

For `Cc1ccc(B(OCCN2CCCCC2)c2ccc(Oc3ccc(B(OCCN4CCCCC4)c4ccc(C)cc4)cc3)cc2)cc1` [Example 447, bis(4,4′-(tolylpiperadylethoxyboryl)phenyl)ether], the x-Fold in assay [1] (setting [3]) and in assay [1] (setting [4]) was 0.49 each time. Moreover, the “TGase activity remaining (% of DMSO control = 100)” value with transglutaminase (TGase) (setting [5]) and in the assay on transglutaminase (TGase) (setting [6]) was 97 throughout.

With `Cc1ccc(B(OC(=O)C(N)CC(N)=O)c2ccc(COCc3ccc(B(OC(=O)C(N)CC(N)=O)c4ccc(C)cc4)cc3)cc2)cc1` (stereo not shown) [Example 449, bis(4,4′-(tolylasparagineboryl)benzyl)ether], the x-Fold in assay [1] (setting [3]) and in assay [1] (setting [4]) was 0.89 each time. In addition, the “TGase activity remaining (% of DMSO control = 100)” value in the assay on transglutaminase (TGase) (setting [5]) and in the assay with transglutaminase (TGase) (setting [6]) was 92 throughout.

With `Cc1ccc(B(OC(=O)C(N)CCCCN)c2ccc(Oc3ccc(B(OC(=O)C(N)CCCCN)c4ccc(C)cc4)cc3)cc2)cc1` (stereo not shown) [Example 450, bis(4,4′-(tolyllysineboryl)phenyl)ether], the x-Fold in assay [1] (setting [3]) and in assay [1] (setting [4]) was 0.49 in each case. The “TGase activity remaining (% of DMSO control = 100)” value in the assay on transglutaminase (TGase) (setting [5]) and in the assay with transglutaminase (TGase) (setting [6]) was 53 in each case.

Regarding `NCCC(N)C(=O)OB(c1ccccc1)c1ccc(COCc2ccc(B(OC(=O)C(N)CCN)c3ccccc3)cc2)cc1` (stereo not shown) [Example 453, bis(4,4′-(phenyl-2,4-diaminobutyrateboryl)benzyl)ether], the x-Fold in assay [1] (setting [3]) and in assay [1] (setting [4]) was 1.04 in each case. The “TGase activity remaining (% of DMSO control = 100)” value with transglutaminase (TGase) (setting [5]) and in the assay with transglutaminase (TGase) (setting [6]) was 113 in each case.

In the case of `c1ccc(B(OCCN2CCCCC2)c2ccc(COCc3ccc(B(OCCN4CCCCC4)c4ccccc4)cc3)cc2)cc1` [Example 459, bis(4,4′-(phenyl-1-piperidylethoxyboryl)benzyl)ether], the x-Fold in assay [1] (setting [3]) and in assay [1] (setting [4]) was 1.03 in each case. In addition, the “TGase activity remaining (% of DMSO control = 100)” value with transglutaminase (TGase) (setting [5]) and with transglutaminase (TGase) (setting [6]) was 80 throughout.

For the compound `c1ccc(B(OCCN2CCCCC2)c2cccc(COCc3cccc(B(OCCN4CCCCC4)c4ccccc4)c3)c2)cc1` [Example 466, bis(3,3′-(phenyl-1-piperidylethoxyboryl)benzyl)ether], the x-Fold in assay [1] (setting [3]) and in assay [1] (setting [4]) was 1.04 in each case. Moreover, the “TGase activity remaining (% of DMSO control = 100)” value in the assay on transglutaminase (TGase) (setting [5]) and with transglutaminase (TGase) (setting [6]) was 71 in each case.

Consider `Cc1ccc2cccc(OB(c3ccccc3)c3ccc(Oc4ccc(B(Oc5cccc6ccc(C)nc56)c5ccccc5)cc4)cc3)c2n1` [Example 477, bis(4,4′-(phenyl-2-methyl-8-quinolinooxyboryl)phenyl)ether], for which the x-Fold in assay [1] (setting [3]) and in assay [1] (setting [4]) was 1.02 in each case. Moreover, the “TGase activity remaining (% of DMSO control = 100)” value in the assay with transglutaminase (TGase) (setting [5]) and in the assay on transglutaminase (TGase) (setting [6]) was 97 in each case.

In the case of `c1ccc(B(OCC2CCCN2)c2ccc3sc4ccc(B(OCC5CCCN5)c5ccccc5)cc4c3c2)cc1` (stereo not shown) [Example 483, 2,8-di(phenyl 2-pyrrolidinomethoxyboryl)dibenzothiophene], the x-Fold in assay [1] (setting [3]) and in assay [1] (setting [4]) was 0.73 throughout. Also, the “TGase activity remaining (% of DMSO control = 100)” value in the assay on transglutaminase (TGase) (setting [5]) and in the assay with transglutaminase (TGase) (setting [6]) was 107 throughout.

With `NCCOB(c1ccsc1)c1ccc2sc3ccc(B(OCCN)c4ccsc4)cc3c2c1` [Example 485, 2,8-di(3-thiophenylaminoethoxyboryl)dibenzothiophene], the x-Fold in assay [1] (setting [3]) and in assay [1] (setting [4]) was 0.98 in each case. Moreover, the “TGase activity remaining (% of DMSO control = 100)” value in the assay with transglutaminase (TGase) (setting [5]) and in the assay on transglutaminase (TGase) (setting [6]) was 76 each time.

Regarding `CCCCB(CCCC)OC(=O)C(N)Cc1ccccc1` (stereo not shown) [Example 493, dibutyl(phenylalanine-O,N)borane], the x-Fold in assay [1] (setting [3]) and in assay [1] (setting [4]) was 1.03 throughout. The “TGase activity remaining (% of DMSO control = 100)” value in the assay on transglutaminase (TGase) (setting [5]) and in the assay on transglutaminase (TGase) (setting [6]) was 106 throughout.

Turning to `OB(c1ccccc1)c1cccc(B(O)c2ccccc2)c1` [compound 554], the 50% inhibitory concentration (IC50) in assay [2] was more than 20000 nM.

With `NC(CCC(=O)O)C(=O)OB(c1ccccc1)c1ccc(Oc2ccc(B(OC(=O)C(N)CCC(=O)O)c3ccc(CO)cc3)cc2)cc1` (stereo not shown) [compound 1036], in assay [2], the IC50 was determined as 300 nM.

`Cc1ccc(B(OC(=O)C(N)CC(N)=O)c2ccc(C)c(Cl)c2)cc1Cl` (stereo not shown) [compound 4103]: the IC50 in assay [2] worked out at 300 nM.

Turning to “FITC aminoethylaminoethyl diphenylborinate [Example 161]”, the x-Fold in assay [1] (setting [7]) and in assay [1] (setting [4]) was 0.99 throughout. For the same compound, the “TGase activity remaining (% of DMSO control = 100)” value with transglutaminase (TGase) (setting [5]) and in the assay with transglutaminase (TGase) (setting [8]) was 6 throughout.

Turning to “bis((4,4′-phenyl methylaminoethoxyboryl)benzyloxybenzyl)methylaminoethoxyborane [Example 190]”, the x-Fold in assay [1] (setting [7]) and in assay [1] (setting [4]) was 1.05 in each case. The “TGase activity remaining (% of DMSO control = 100)” value with transglutaminase (TGase) (setting [5]) and in the assay on transglutaminase (TGase) (setting [8]) was 99 each time.

Take “bis((4,4′-phenyldimethylaminoethoxyboryl)benzyloxybenzyl)dimethylamino-ethoxyborane [Example 191]”: the x-Fold in assay [1] (setting [7]) and in assay [1] (setting [4]) was 1.04 in each case. In addition, the “TGase activity remaining (% of DMSO control = 100)” value with transglutaminase (TGase) (setting [5]) and with transglutaminase (TGase) (setting [8]) was 85 each time.

With “di(3-chloro-4-methylphenyl)(2,6-diaminopimelinate-O,N)borane [Example 286]”, the x-Fold in assay [1] (setting [7]) and in assay [1] (setting [4]) was 0.93 in each case. For the same compound, the “TGase activity remaining (% of DMSO control = 100)” value in the assay on transglutaminase (TGase) (setting [5]) and in the assay on transglutaminase (TGase) (setting [8]) was 104 in each case.

Turning to “di(3-chloro-6-methyl-phenyl)(argininate-O,N)borane [Example 156]”, the x-Fold in assay [1] (setting [7]) and in assay [1] (setting [4]) was 1.08 in each case. Moreover, the “TGase activity remaining (% of DMSO control = 100)” value in the assay on transglutaminase (TGase) (setting [5]) and with transglutaminase (TGase) (setting [8]) was 91 each time.

On to “diphenyl(FITC-2,6-diaminocapronate-O,N)borane [Example 177]”, for which the x-Fold in assay [1] (setting [7]) and in assay [1] (setting [4]) was 1.00 in each case. Moreover, the “TGase activity remaining (% of DMSO control = 100)” value in the assay on transglutaminase (TGase) (setting [5]) and in the assay with transglutaminase (TGase) (setting [8]) was 28 in each case.

“diphenyl(tryptophanate-O,N)borane [Example 260]”: the x-Fold in assay [1] (setting [7]) and in assay [1] (setting [4]) was 0.89 in each case. Besides, the “TGase activity remaining (% of DMSO control = 100)” value in the assay with transglutaminase (TGase) (setting [5]) and in the assay with transglutaminase (TGase) (setting [8]) was 106 throughout.

For the compound “tetramethylrhodamine aminoethylaminoethyl diphenylborinate [Example 162]”, the x-Fold in assay [1] (setting [7]) and in assay [1] (setting [4]) was 0.85 in each case. In addition, the “TGase activity remaining (% of DMSO control = 100)” value in the assay on transglutaminase (TGase) (setting [5]) and in the assay with transglutaminase (TGase) (setting [8]) was −2 each time.

Source of the values: patent US8853424B2 (Japan Science and Technology Agency, priority 2008, dated 2014).
